Tests used:
MMP-2 [1] = assay: Substrate phage display with NGS: relative probability (RP) of P3-P1' tetramer clusters; assay type: biochemical, human; conditions: MMP2;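 also: ratio of tetramer probability after protease selection to that in naive phage library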
MMP-2 [2] = biological target: T1, MMP-2 (Homo sapiens, UniProt P08253); assay: K(obs) of individual phage substrates (set of 1369); assay type: biochemical; conditions: MMP2
T1 sequence (P08253 110-660): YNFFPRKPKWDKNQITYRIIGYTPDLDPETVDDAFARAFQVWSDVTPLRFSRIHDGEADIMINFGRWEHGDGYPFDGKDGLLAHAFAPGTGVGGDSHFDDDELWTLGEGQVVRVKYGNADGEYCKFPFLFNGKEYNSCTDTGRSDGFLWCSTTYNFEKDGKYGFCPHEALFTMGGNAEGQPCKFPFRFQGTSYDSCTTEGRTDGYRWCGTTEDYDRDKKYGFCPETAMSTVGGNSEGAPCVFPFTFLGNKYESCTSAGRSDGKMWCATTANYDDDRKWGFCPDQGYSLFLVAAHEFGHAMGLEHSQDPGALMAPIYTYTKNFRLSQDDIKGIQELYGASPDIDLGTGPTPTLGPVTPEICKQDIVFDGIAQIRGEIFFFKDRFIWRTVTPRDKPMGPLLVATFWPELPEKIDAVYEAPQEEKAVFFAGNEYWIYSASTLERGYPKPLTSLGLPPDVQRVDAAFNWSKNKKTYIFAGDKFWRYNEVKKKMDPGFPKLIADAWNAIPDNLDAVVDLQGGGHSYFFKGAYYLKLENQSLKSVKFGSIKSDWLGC

MMP-9 = MMP-9 (Homo sapiens, UniProt P14780); assay: as above; assay type: biochemical; conditions: MMP9
MMP-9, sequence (P14780 94-707): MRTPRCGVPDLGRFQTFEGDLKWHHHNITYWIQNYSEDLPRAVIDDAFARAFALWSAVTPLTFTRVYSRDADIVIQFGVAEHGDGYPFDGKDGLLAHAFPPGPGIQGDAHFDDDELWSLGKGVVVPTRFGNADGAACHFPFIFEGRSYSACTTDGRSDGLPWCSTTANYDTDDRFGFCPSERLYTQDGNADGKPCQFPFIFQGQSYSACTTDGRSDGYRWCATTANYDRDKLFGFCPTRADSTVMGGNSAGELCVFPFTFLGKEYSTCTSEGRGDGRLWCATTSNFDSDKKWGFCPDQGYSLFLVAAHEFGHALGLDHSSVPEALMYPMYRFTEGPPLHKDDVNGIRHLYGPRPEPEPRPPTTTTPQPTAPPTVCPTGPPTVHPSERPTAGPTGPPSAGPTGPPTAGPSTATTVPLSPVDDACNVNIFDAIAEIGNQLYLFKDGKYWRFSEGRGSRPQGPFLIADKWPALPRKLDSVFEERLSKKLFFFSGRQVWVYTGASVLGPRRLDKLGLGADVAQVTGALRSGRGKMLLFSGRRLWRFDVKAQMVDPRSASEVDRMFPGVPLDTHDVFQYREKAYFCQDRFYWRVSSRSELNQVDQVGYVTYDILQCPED

[3] = RP of the P3-P1' tetramer contained in the substrate
[4] = individual phage substrate of the set of 1369 peptides, cleavage position marked by '-'
[5] = individual phage substrate of the set of 1369 peptides, dash in the sequence marks the cleavage position
[6] = RP of the P3-P1' tetramer contained in the substrate (substrate phage display with NGS)
[7] = individual phage substrates, set of 1369 peptides, cleavage position marked by hyphen in sequence
[8] = individual phage substrates, set of 1369 peptides, hyphen in sequence marks cleavage position

Substance | Kobs (MMP-2 [2]; [4]) | Kobs (MMP-9; [5]) | Kobs (MMP-2 [2]; [7]) | Kobs (MMP-9; [8]) | relative probability (RP) (MMP-2 [1]; [3]) | relative probability (RP) (MMP-2 [1]; [6])
YDSRG-LTASG | 1239.69 M⁻¹ s⁻¹ | 231.616 M⁻¹ s⁻¹ | – | – | 6.164 | –
KGPEM-LTASG | – | – | 3637.04 M⁻¹ s⁻¹ | 5667.28 M⁻¹ s⁻¹ | – | 16.0599
TTLRW-WTASG | – | – | 1816.46 M⁻¹ s⁻¹ | 690.17 M⁻¹ s⁻¹ | – | 6.313
SGGSG-LRIGL | 12792.1 M⁻¹ s⁻¹ | 201.585 M⁻¹ s⁻¹ | – | – | 1.9698 | –
TATNW-LTASG | 5461.43 M⁻¹ s⁻¹ | 0 M⁻¹ s⁻¹ | – | – | 15.348 | –
NTPNW-LTASG | – | – | 10866.7 M⁻¹ s⁻¹ | 6131.32 M⁻¹ s⁻¹ | – | 26.5667
WPHGS-LTASG | 12792.1 M⁻¹ s⁻¹ | 0 M⁻¹ s⁻¹ | – | – | 19.9233 | –
GQPRG-LRTAS | 12792.1 M⁻¹ s⁻¹ | 12792.1 M⁻¹ s⁻¹ | – | – | 35.2511 | –
SGVSF-LQQTA | 1373.05 M⁻¹ s⁻¹ | 0 M⁻¹ s⁻¹ | – | – | 5.918 | –
VYWGN-MTASG | – | – | 4082.43 M⁻¹ s⁻¹ | 27.918 M⁻¹ s⁻¹ | – | 3.723
SGASH-MTLTA | – | – | 0 M⁻¹ s⁻¹ | 0 M⁻¹ s⁻¹ | – | 12.3873
GRVYD-LKTAS | – | – | 585.336 M⁻¹ s⁻¹ | 2761.81 M⁻¹ s⁻¹ | – | 1.244
GWAYN-MRTAS | – | – | 292.668 M⁻¹ s⁻¹ | 2280.5 M⁻¹ s⁻¹ | – | 10.8408
HAPRG-STASG | 7015.91 M⁻¹ s⁻¹ | 7386.83 M⁻¹ s⁻¹ | – | – | 16.3331 | –
TAPKL-LTASG | 7815.03 M⁻¹ s⁻¹ | 12792.1 M⁻¹ s⁻¹ | – | – | 15.3454 | –
STIRM-LTASG | 2837.92 M⁻¹ s⁻¹ | 2157.02 M⁻¹ s⁻¹ | – | – | 12.7446 | –
HWPVG-LTASG | – | – | 2837.92 M⁻¹ s⁻¹ | 3079.62 M⁻¹ s⁻¹ | – | 35.2016
SGPFH-LSRTA | – | – | 84.609 M⁻¹ s⁻¹ | 2280.5 M⁻¹ s⁻¹ | – | 23.4724
GVYRH-MRTAS | – | – | 0 M⁻¹ s⁻¹ | 0 M⁻¹ s⁻¹ | – | 0.3212
QPLSW-VTASG | 12792.1 M⁻¹ s⁻¹ | 4922.1 M⁻¹ s⁻¹ | – | – | 11.7463 | –
GGSGN-LTMGS | – | – | 0 M⁻¹ s⁻¹ | 0 M⁻¹ s⁻¹ | – | 12.7361
GSGQH-LRVHT | – | – | 113.394 M⁻¹ s⁻¹ | 0 M⁻¹ s⁻¹ | – | 1.164

Substance | Kobs (MMP-2 [2]; [4]) | Kobs (MMP-9; [5]) | Kobs (MMP-2 [2]; [7]) | Kobs (MMP-9; [8]) | relative probability (RP) (MMP-2 [1]; [3]) | relative probability (RP) (MMP-2 [1]; [6])
SGAMG-LFRTA | 142.481 M⁻¹ s⁻¹ | 619.843 M⁻¹ s⁻¹ | – | – | 23.7576 | –
GMVQH-LITAS | 10866.7 M⁻¹ s⁻¹ | 585.336 M⁻¹ s⁻¹ | – | – | 22.9738 | –
SGVRW-YSNTA | 874.197 M⁻¹ s⁻¹ | 5667.28 M⁻¹ s⁻¹ | – | – | 17.3102 | –
SKPNF-LTASG | 5889.62 M⁻¹ s⁻¹ | 3741.87 M⁻¹ s⁻¹ | – | – | 15.743 | –
GSGQH-LRKST | – | – | 171.876 M⁻¹ s⁻¹ | 0 M⁻¹ s⁻¹ | – | 1.164
GRPRG-LTTAS | 12792.1 M⁻¹ s⁻¹ | 12792.1 M⁻¹ s⁻¹ | – | – | 35.2511 | –
WVMES-LTASG | 1660.66 M⁻¹ s⁻¹ | 386.839 M⁻¹ s⁻¹ | – | – | 8.775 | –
RGPYM-LTASG | – | – | 6688.74 M⁻¹ s⁻¹ | 12792.1 M⁻¹ s⁻¹ | – | 24.9477
AGPQP-LTASG | – | – | 12792.1 M⁻¹ s⁻¹ | 12792.1 M⁻¹ s⁻¹ | – | 30.3595
GTLRS-LITAS | 12792.1 M⁻¹ s⁻¹ | 1465.65 M⁻¹ s⁻¹ | – | – | 15.1373 | –
SGAHG-LLLTA | 517.582 M⁻¹ s⁻¹ | 1071.29 M⁻¹ s⁻¹ | – | – | 23.6336 | –
VKVFS-MTASG | – | – | 912.511 M⁻¹ s⁻¹ | 4470.66 M⁻¹ s⁻¹ | – | 2.265
SGPFY-LRNTA | – | – | 2038.8 M⁻¹ s⁻¹ | 7815.03 M⁻¹ s⁻¹ | – | 17.7778
SGPVM-LRGTA | – | – | 12792.1 M⁻¹ s⁻¹ | 12792.1 M⁻¹ s⁻¹ | – | 25.0294
GFFLH-LTTAS | – | – | 0 M⁻¹ s⁻¹ | 0 M⁻¹ s⁻¹ | – | 0.8093
RILGY-LTASG | – | – | 12792.1 M⁻¹ s⁻¹ | 292.668 M⁻¹ s⁻¹ | – | 24.8925
GSGAS-LQMLT | – | – | 3253.29 M⁻¹ s⁻¹ | 84.609 M⁻¹ s⁻¹ | – | 9.538
FDISH-LTASG | – | – | 10866.7 M⁻¹ s⁻¹ | 171.876 M⁻¹ s⁻¹ | – | 30.7015
GYPRA-FSTAS | 12792.1 M⁻¹ s⁻¹ | 12792.1 M⁻¹ s⁻¹ | – | – | 31.8957 | –
GWPRE-LKTAS | 12792.1 M⁻¹ s⁻¹ | 12792.1 M⁻¹ s⁻¹ | – | – | 31.9513 | –
ATIAH-LTASG | – | – | 12792.1 M⁻¹ s⁻¹ | 1465.65 M⁻¹ s⁻¹ | – | 32.9345
SGPAA-LLGTA | 8941.32 M⁻¹ s⁻¹ | 12792.1 M⁻¹ s⁻¹ | – | – | 35.8015 | –

Now from value to substance, other results behind:

Kobs (MMP-2 [2]; [4]) | Kobs (MMP-9; [5]) | Kobs (MMP-2 [2]; [7]) | Kobs (MMP-9; [8]) | Substance | relative probability (RP) (MMP-2 [1]; [3]) | relative probability (RP) (MMP-2 [1]; [6])
– | – | 386.839 M⁻¹ s⁻¹ | 762.325 M⁻¹ s⁻¹ | SGLRH-LSNTA | – | 22.7972
– | – | 0 M⁻¹ s⁻¹ | 3079.62 M⁻¹ s⁻¹ | GIPFF-MTTAS | – | 3.509
– | – | 2097.28 M⁻¹ s⁻¹ | 1071.29 M⁻¹ s⁻¹ | HGLWS-LTASG | – | 8.3838
12792.1 M⁻¹ s⁻¹ | 12792.1 M⁻¹ s⁻¹ | – | – | SGPLG-YTVTA | 33.1744 | –
1030.73 M⁻¹ s⁻¹ | 0 M⁻¹ s⁻¹ | – | – | LAWAH-ITASG | 0.05752 | –
– | – | 4470.66 M⁻¹ s⁻¹ | 726.013 M⁻¹ s⁻¹ | GRASH-LMTAS | – | 19.8208
5889.62 M⁻¹ s⁻¹ | 3079.62 M⁻¹ s⁻¹ | – | – | VDIRM-LTASG | 12.7446 | –
– | – | 12792.1 M⁻¹ s⁻¹ | 912.511 M⁻¹ s⁻¹ | NRLSH-WTASG | – | 23.1226
– | – | 142.481 M⁻¹ s⁻¹ | 142.481 M⁻¹ s⁻¹ | SGWAP-LLRTA | – | 23.9342
1154.21 M⁻¹ s⁻¹ | 0 M⁻¹ s⁻¹ | – | – | GGSGA-LRVRG | 13.4712 | –
– | – | 5269.78 M⁻¹ s⁻¹ | 0 M⁻¹ s⁻¹ | GGYAN-LTTAS | – | 27.7486
1327.88 M⁻¹ s⁻¹ | 1925.41 M⁻¹ s⁻¹ | – | – | SGPHH-LTLTA | 27.4742 | –
– | – | 12792.1 M⁻¹ s⁻¹ | 8321.48 M⁻¹ s⁻¹ | RTPVG-LTASG | – | 35.2016
– | – | 836.403 M⁻¹ s⁻¹ | 0 M⁻¹ s⁻¹ | SGISF-MSVTA | – | 23.3965
585.336 M⁻¹ s⁻¹ | 951.362 M⁻¹ s⁻¹ | – | – | GEVFS-LTASG | 9.631 | –
– | – | 3344.37 M⁻¹ s⁻¹ | 2409.72 M⁻¹ s⁻¹ | GSVMN-LTASG | – | 18.6016
2687.73 M⁻¹ s⁻¹ | 12792.1 M⁻¹ s⁻¹ | – | – | SGPKW-IIQTA | 22.5059 | –
– | – | 912.511 M⁻¹ s⁻¹ | 0 M⁻¹ s⁻¹ | HRQQN-LTASG | – | 4.247
– | – | 386.839 M⁻¹ s⁻¹ | 0 M⁻¹ s⁻¹ | SGYMS-LIATA | – | 0.07249
– | – | 5667.28 M⁻¹ s⁻¹ | 451.441 M⁻¹ s⁻¹ | EMYGN-MTASG | – | 13.8836
– | – | 8941.32 M⁻¹ s⁻¹ | 5889.62 M⁻¹ s⁻¹ | TFARS-LTASG | – | 17.186
4922.1 M⁻¹ s⁻¹ | 3438.54 M⁻¹ s⁻¹ | – | – | GIVRY-LQTAS | 18.3724 | –
– | – | 8941.32 M⁻¹ s⁻¹ | 8941.32 M⁻¹ s⁻¹ | TVPRA-WTASG | – | 34.1791
1561.44 M⁻¹ s⁻¹ | 3079.62 M⁻¹ s⁻¹ | – | – | GRARW-LMTAS | 19.0362 | –
2097.28 M⁻¹ s⁻¹ | 951.362 M⁻¹ s⁻¹ | – | – | SGSRA-LTASG | 12.4506 | –
9740.44 M⁻¹ s⁻¹ | 585.336 M⁻¹ s⁻¹ | – | – | PTFAH-LTASG | 19.6504 | –

From publication PMC7932537, “Quantitative profiling of protease specificity” (PLoS Computational Biology, 2021)
